Test results as given in publication PMC7070898 (Clinical and Translational Science, 2019).

Experiment: Safety and tolerability
[1] = MAD 25 mg once daily 14 days, n = 9
[2] = MAD 75 mg once daily 14 days, n = 9
[3] = MAD 200 mg once daily 14 days, n = 9

Compound: C=CC(=O)N1CCC(CNc2ncnc(N)c2-c2ccc(Oc3ccccc3)cc2)CC1 [evobrutinib]
- TEAE: Abdominal discomfort [1]: 1 (11.1) (1) n (%), (number of events)
- TEAE: Abdominal pain [1]: 0 (0.0) n (%), (number of events)
- TEAE: Application site irritation [1]: 0 (0.0) n (%), (number of events)
- TEAE: Complex regional pain [1]: 1 (11.1) (1) n (%), (number of events)
- TEAE: Constipation [1]: 0 (0.0) n (%), (number of events)
- TEAE: Dry throat [1]: 0 (0.0) n (%), (number of events)
- TEAE: Excoriation [1]: 1 (11.1) (1) n (%), (number of events)
- TEAE: Fatigue [1]: 0 (0.0) n (%), (number of events)
- TEAE: Headache [1]: 1 (11.1) (1) n (%), (number of events)
- TEAE: Muscle spasms [1]: 0 (0.0) n (%), (number of events)
- TEAE: Muscle strain [1]: 1 (11.1) (1) n (%), (number of events)
- TEAE: Nausea [1]: 0 (0.0) n (%), (number of events)
- TEAE: Overall total [1]: 3 (33.3) (6) n (%), (number of events)
- TEAE: Rhinorrhea [1]: 1 (11.1) (1) n (%), (number of events)
- TEAE: Sneezing [1]: 0 (0.0) n (%), (number of events)
- TEAE: Toothache [1]: 0 (0.0) n (%), (number of events)
- TEAE: URTI [1]: 0 (0.0) n (%), (number of events)
- TEAE: Abdominal discomfort [2]: 0 (0.0) n (%), (number of events)
- TEAE: Abdominal pain [2]: 1 (11.1) (2) n (%), (number of events)
- TEAE: Application site irritation [2]: 1 (11.1) (1) n (%), (number of events)
- TEAE: Complex regional pain [2]: 0 (0.0) n (%), (number of events)
- TEAE: Constipation [2]: 1 (11.1) (1) n (%), (number of events)
- TEAE: Dry throat [2]: 1 (11.1) (1) n (%), (number of events)
- TEAE: Excoriation [2]: 0 (0.0) n (%), (number of events)
- TEAE: Fatigue [2]: 2 (22.2) (2) n (%), (number of events)
- TEAE: Headache [2]: 2 (22.2) (2) n (%), (number of events)
- TEAE: Muscle spasms [2]: 1 (11.1) (1) n (%), (number of events)
- TEAE: Muscle strain [2]: 0 (0.0) n (%), (number of events)
- TEAE: Nausea [2]: 1 (11.1) (2) n (%), (number of events)
- TEAE: Overall total [2]: 7 (77.8) (14) n (%), (number of events)
- TEAE: Rhinorrhea [2]: 0 (0.0) n (%), (number of events)
- TEAE: Sneezing [2]: 1 (11.1) (1) n (%), (number of events)
- TEAE: Toothache [2]: 0 (0.0) n (%), (number of events)
- TEAE: URTI [2]: 1 (11.1) (1) n (%), (number of events)
- TEAE: Abdominal discomfort [3]: 0 (0.0) n (%), (number of events)
- TEAE: Abdominal pain [3]: 0 (0.0) n (%), (number of events)
- TEAE: Application site irritation [3]: 1 (11.1) (1) n (%), (number of events)
- TEAE: Complex regional pain [3]: 0 (0.0) n (%), (number of events)
- TEAE: Constipation [3]: 0 (0.0) n (%), (number of events)
- TEAE: Dry throat [3]: 0 (0.0) n (%), (number of events)
- TEAE: Excoriation [3]: 0 (0.0) n (%), (number of events)
- TEAE: Fatigue [3]: 0 (0.0) n (%), (number of events)
- TEAE: Headache [3]: 0 (0.0) n (%), (number of events)
- TEAE: Muscle spasms [3]: 0 (0.0) n (%), (number of events)
- TEAE: Muscle strain [3]: 0 (0.0) n (%), (number of events)
- TEAE: Nausea [3]: 0 (0.0) n (%), (number of events)
- TEAE: Overall total [3]: 3 (33.3) (3) n (%), (number of events)
- TEAE: Rhinorrhea [3]: 0 (0.0) n (%), (number of events)
- TEAE: Sneezing [3]: 0 (0.0) n (%), (number of events)
- TEAE: Toothache [3]: 1 (11.1) (1) n (%), (number of events)
- TEAE: URTI [3]: 1 (11.1) (1) n (%), (number of events)
- TEAE: Abdominal discomfort (MAD pooled active, n = 27): 1 (3.7) (1) n (%), (number of events)
- TEAE: Abdominal pain (MAD pooled active, n = 27): 1 (3.7) (2) n (%), (number of events)
- TEAE: Application site irritation (MAD pooled active, n = 27): 2 (7.4) (2) n (%), (number of events)
- TEAE: Complex regional pain (MAD pooled active, n = 27): 1 (3.7) (1) n (%), (number of events)
- TEAE: Constipation (MAD pooled active, n = 27): 1 (3.7) (1) n (%), (number of events)
- TEAE: Dry throat (MAD pooled active, n = 27): 1 (3.7) (1) n (%), (number of events)
- TEAE: Excoriation (MAD pooled active, n = 27): 1 (3.7) (1) n (%), (number of events)
- TEAE: Fatigue (MAD pooled active, n = 27): 2 (7.4) (2) n (%), (number of events)
- TEAE: Headache (MAD pooled active, n = 27): 3 (11.1) (3) n (%), (number of events)
- TEAE: Muscle spasms (MAD pooled active, n = 27): 1 (3.7) (1) n (%), (number of events)
- TEAE: Muscle strain (MAD pooled active, n = 27): 1 (3.7) (1) n (%), (number of events)
- TEAE: Nausea (MAD pooled active, n = 27): 1 (3.7) (2) n (%), (number of events)
- TEAE: Overall total (MAD pooled active, n = 27): 13 (48.1) (23) n (%), (number of events)
- TEAE: Rhinorrhea (MAD pooled active, n = 27): 1 (3.7) (1) n (%), (number of events)
- TEAE: Sneezing (MAD pooled active, n = 27): 1 (3.7) (1) n (%), (number of events)
- TEAE: Toothache (MAD pooled active, n = 27): 1 (3.7) (1) n (%), (number of events)
- TEAE: URTI (MAD pooled active, n = 27): 2 (7.4) (2) n (%), (number of events)
- TEAE: Abdominal pain (SAD 25 mg, n = 6): 0 (0.0) n (%), (number of events)
- TEAE: Amylase increased (SAD 25 mg, n = 6): 0 (0.0) n (%), (number of events)
- TEAE: Application site pruritus (due to ECG stickers) (SAD 25 mg, n = 6): 0 (0.0) n (%), (number of events)
- TEAE: Back pain (SAD 25 mg, n = 6): 0 (0.0) n (%), (number of events)
- TEAE: Contact dermatitis (SAD 25 mg, n = 6): 0 (0.0) n (%), (number of events)
- TEAE: Dizziness (SAD 25 mg, n = 6): 0 (0.0) n (%), (number of events)
- TEAE: Dry eye (SAD 25 mg, n = 6): 0 (0.0) n (%), (number of events)
- TEAE: Dry mouth (SAD 25 mg, n = 6): 0 (0.0) n (%), (number of events)
- TEAE: Dyspepsia (SAD 25 mg, n = 6): 0 (0.0) n (%), (number of events)
- TEAE: Excoriation (SAD 25 mg, n = 6): 0 (0.0) n (%), (number of events)
- TEAE: Headache (SAD 25 mg, n = 6): 0 (0.0) n (%), (number of events)
- TEAE: Lipase increased (SAD 25 mg, n = 6): 0 (0.0) n (%), (number of events)
- TEAE: Multiple injuries (SAD 25 mg, n = 6): 0 (0.0) n (%), (number of events)
- TEAE: Nasal congestion (SAD 25 mg, n = 6): 0 (0.0) n (%), (number of events)
- TEAE: Noncardiac chest pain (SAD 25 mg, n = 6): 0 (0.0) n (%), (number of events)
- TEAE: Odynophagia (SAD 25 mg, n = 6): 0 (0.0) n (%), (number of events)
- TEAE: Overall total (SAD 25 mg, n = 6): 0 (0.0) n (%), (number of events)
- TEAE: URTI (SAD 25 mg, n = 6): 0 (0.0) n (%), (number of events)
- TEAE: Abdominal pain (SAD 50 mg, n = 6): 0 (0.0) n (%), (number of events)
- TEAE: Amylase increased (SAD 50 mg, n = 6): 0 (0.0) n (%), (number of events)
- TEAE: Application site pruritus (due to ECG stickers) (SAD 50 mg, n = 6): 0 (0.0) n (%), (number of events)
- TEAE: Back pain (SAD 50 mg, n = 6): 1 (16.7) (1) n (%), (number of events)
- TEAE: Contact dermatitis (SAD 50 mg, n = 6): 2 (33.3) (2) n (%), (number of events)
- TEAE: Dizziness (SAD 50 mg, n = 6): 0 (0.0) n (%), (number of events)
- TEAE: Dry eye (SAD 50 mg, n = 6): 0 (0.0) n (%), (number of events)
- TEAE: Dry mouth (SAD 50 mg, n = 6): 0 (0.0) n (%), (number of events)
- TEAE: Dyspepsia (SAD 50 mg, n = 6): 1 (16.7) (1) n (%), (number of events)
- TEAE: Excoriation (SAD 50 mg, n = 6): 0 (0.0) n (%), (number of events)
- TEAE: Headache (SAD 50 mg, n = 6): 1 (16.7) (2) n (%), (number of events)
- TEAE: Lipase increased (SAD 50 mg, n = 6): 0 (0.0) n (%), (number of events)
- TEAE: Multiple injuries (SAD 50 mg, n = 6): 0 (0.0) n (%), (number of events)
- TEAE: Nasal congestion (SAD 50 mg, n = 6): 0 (0.0) n (%), (number of events)
- TEAE: Noncardiac chest pain (SAD 50 mg, n = 6): 0 (0.0) n (%), (number of events)
- TEAE: Odynophagia (SAD 50 mg, n = 6): 0 (0.0) n (%), (number of events)
- TEAE: Overall total (SAD 50 mg, n = 6): 3 (50.0) (6) n (%), (number of events)
- TEAE: URTI (SAD 50 mg, n = 6): 0 (0.0) n (%), (number of events)
